Results from patent EP1285920A1, “C10 Ester sustituted taxanes as antitumor agents” (Florida State University Research Foundation, Inc., priority 2001, dated 2003).
Like-named read-outs stand apart in the source and are kept apart here.

Columns and labels:
blood cell populations = test: Effect of oral treatment on blood cell populations and body weight in the MX-1 study (Example 22); assay type: in vivo, nu/nu mice; settings: mg/kg: 0499 80, 0550 73, 0611 113, 0748 200
Experimental: Antitumor compounds were administered orally in a study to investigate whether such a formulation is efficacious against the MX-1 human breast carcinoma xenograft. Antitumor compound 0499 was formulated as Solution 1 in Example 6. Antitumor compound 0550 was formulated as Solution 2 in Example 6. Antitumor compound 0611 was formulated as Solution 3 in Example 6. Antitumor compound 0748 was formulated as Solution 4 in Example 6. Other antitumor compounds were formulated similarly. The compounds were prepared in a vehicle of 90% saline, 5% Cremophor, and 5% ethanol.
Female nu/nu mice (11-12 weeks of age; implanted subcutaneously with 1 mm^3 MX-1 human breast carcinoma fragments in the flank) were sorted into one control group (n=10) and four treatment (n=6) groups (group mean tumor size of 47-49 mg). The study was terminated on Day 63.
In addition to survival and tumor regression responses, the effect of treatment on blood cell populations was assessed. The major effect of these antitumor compounds on blood cell populations was a marked reduction in the neutrophil cell number. As well, monocyte depletion correlated fairly well with neutrophil reduction for each antitumor compound. […] There was a correlation between antitumor activity and reduced neutrophil count. In general, toxicity (as determined by neutrophil depletion) and weight loss correlated with efficacy. […] Importantly, the toxicities observed with the very efficacious antitumor compounds were manageable and reversible; neutrophil count and body weight rebounded from their low points in just a few days. Table 20 summarizes the weight reduction, neutrophil and monocyte measurements on Day 4, with tumor weight reduction calculated at Day 18: Table 20

HCT116 carcinoma = tested on: HCT116 carcinoma
Method in brief: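 Mice bearing HCT116 tumours received a single i.v. maximum tolerated dose per compound, formulated in 5% ethanol, 5% Cremophor, 90% isotonic saline. Study ended on Day 60; complete response meant no palpable tumour at study end.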

SK-MES carcinoma = test: In vivo evaluation against SK-MES human lung carcinoma xenograft (i.v., Example 11); settings: SK-MES
Experimental: Antitumor compounds were formulated for an i.v. dosing regime prepared in the following vehicle: 10% ethanol, 10% Cremophor and 80% isotonic saline.
Vehicle control animals were dosed twice intravenously with half the total volume being given separated by one hour. The study was terminated on Day 60.
A complete response is obtained if the tumor is not palpable at the end of the study.
A tumor scoring system was designed to provide a more quantitative ranking of efficacy (therapeutic potential) among the antitumor agents evaluated against the different human solid tumor xenografts. Each mouse in a study was given a score of from 1 to 10 at the end of the study. The scores can be summarized as follows:
The individual score for each mouse was averaged into a mean score for each treatment group. […]

MX-1 carcinoma = tested on: MX-1 carcinoma
Method in brief: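 Mice dosed with a single i.v. bolus (qd x 1) at each compound's MTD, formulated in 5% ethanol, 5% Cremophor, 90% isotonic saline. Study ended Day 60; complete response = tumor not palpable at study end.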

[1] = Day 4, vs vehicle, single oral bolus
[2] = HCT116, Taxol i.p. 18 mg/kg qd x 5 (Group 3)
[3] = number of 5 mice, Taxol 18 mg/kg i.p. qd x 5
[4] = MX-1, i.v. qd x 1, six mice per group

Q: How did the “% Reduction (Monocytes)” value (blood cell populations; [1]) turn out when `CCC(=O)O[C@H]1C(=O)[C@@]2(C)[C@H]([C@H](OC(=O)c3ccccc3)[C@]3(O)C[C@H](OC(=O)[C@H](O)[C@H](C=C(C)C)NC(=O)OC(C)(C)C)C(C)=C1C3(C)C)[C@]1(OC(C)=O)CO[C@@H]1C[C@@H]2O` [Compound 0499] was run?
A: 24.0%

Q: And the “% Reduction (Neutrophils)” value (blood cell populations; [1])?
A: 91.6%

Q: And the “Monocytes (K/µL)” value (blood cell populations; Day 4, single oral bolus Day 1)?
A: 0.073 K/µL

Q: And the “Neutrophils (K/µL)” value (blood cell populations; Day 4, single oral bolus Day 1)?
A: 0.077 K/µL

Q: What about the “Maximum Weight Loss (Day)” value (blood cell populations; body weight, day of maximum in parentheses in the cell, single oral bolus Day 1) of the same molecule?
A: -11.4% (7)

Q: With `CC(=O)O[C@H]1C(=O)[C@@]2(C)[C@H]([C@H](OC(=O)c3ccccc3)[C@]3(O)C[C@H](OC(=O)[C@H](O)[C@@H](NC(=O)c4ccccc4)c4ccccc4)C(C)=C1C3(C)C)[C@]1(OC(C)=O)CO[C@@H]1C[C@@H]2O` [Taxol, paclitaxel, reference compound] as the molecule, how does the “increase in survival compared to control Group 1” value (HCT116 carcinoma; HCT116, Taxol 36 mg/kg i.v. qd x 1) read?
A: 24%

Q: And the Partial Response (HCT116 carcinoma; [2])?
A: one

Q: And the “survival extension compared to Group 1 control mice” value (HCT116 carcinoma; [2])?
A: 84%

Q: And the MDS (HCT116 carcinoma; HCT116, i.v. qd x 1 (compounds single MTD; Taxol 36 mg/kg split), days until tumor 2.0 g, ended Day 60)?
A: 27.5 days

Q: And the Stable Disease (HCT116 carcinoma; HCT116, i.v. qd x 1, five mice per group)?
A: one

Q: And the “Mean Score” value (HCT116 carcinoma; Taxol 18 mg/kg i.p. qd x 5, 5 mice)?
A: 3.6 ± 1.4

Q: What about the “Mean Score” value (HCT116 carcinoma; i.v. qd x 1 at MTD, 5 mice/group, Day 60, doses as in E3) of the same molecule?
A: 2.2 ± 0.5

Q: And the “MDS (n)” value (HCT116 carcinoma; mean days of survival until tumor reached 2.0 g, i.v. qd x 1 at MTD, 5 mice/group, study ended Day 60, mg/kg: Taxol 36 (split doses), 0503 72.6, 0536 49, 0663 159, 0670 123, 0687 159, 0706 108, 0908 159, 0947 76.9, 0951 72.6, 0983 72.6, 0999 49, 1003 49, 1011 108)?
A: 27.5 ± 1.7 (4) days

Q: What about the “tolerability” value (HCT116 carcinoma; mouse, in vivo, iv) of the same molecule?
A: well-tolerated

Q: And the “Stable Disease” value (HCT116 carcinoma; number of 5 mice, tumor did not reach 2.0 g by end of study, i.v. qd x 1 at MTD, Day 60, doses as in E3)?
A: 1

Q: And the “Complete Response” value (HCT116 carcinoma; number of 5 mice, tumor not palpable at end of study, i.v. qd x 1 at MTD, Day 60, doses as in E3)?
A: 0

Q: And the “Partial Response” value (HCT116 carcinoma; number of 5 mice, tumor smaller than on Day 1, i.v. qd x 1 at MTD, Day 60, doses as in E3)?
A: 0

Q: And the “Complete Response” value (HCT116 carcinoma; [3])?
A: 0

Q: What about the “Partial Response” value (HCT116 carcinoma; [3]) of the same molecule?
A: 1

Q: What about the “Stable Disease” value (HCT116 carcinoma; [3]) of the same molecule?
A: 0

Q: And the Survivors (HCT116 carcinoma; [3])?
A: 1

Q: What about the “Toxic Deaths” value (HCT116 carcinoma; [3]) of the same molecule?
A: 0

Q: What about the Survivors (HCT116 carcinoma; number of 5 mice, i.v. qd x 1 at MTD, Day 60, doses as in E3) of the same molecule?
A: 1

Q: And the “Toxic Deaths” value (HCT116 carcinoma; number of 5 mice, i.v. qd x 1 at MTD, Day 60, mg/kg: Taxol 36 (split doses), 0503 72.6, 0536 49, 0663 159, 0670 123, 0687 159, 0706 108, 0908 159, 0947 76.9, 0951 72.6, 0983 72.6, 0999 49, 1003 49, 1011 108)?
A: 0

Q: What about the “survival extension compared to vehicle controls” value (SK-MES carcinoma; Taxol 36 mg/kg i.v.) of the same molecule?
A: 30%

Q: What about the “MDS (n)” value (SK-MES carcinoma; i.v. MTD in two half doses one hour apart, qd x 1, Taxol 36 mg/kg, 0503 72.1 mg/kg, days until tumor 1.5 g, ended Day 60) of the same molecule?
A: 16 ± 2.0 (6) days

Q: And the “Toxic Deaths” value (SK-MES carcinoma; i.v. split dose qd x 1, six mice per group)?
A: 0

Q: What about the Survivors (SK-MES carcinoma; i.v. split dose qd x 1, six mice per group, Day 60) of the same molecule?
A: 0

Q: What about the “Stable Disease” value (SK-MES carcinoma; i.v. split dose qd x 1, tumor below 1.5 g at termination) of the same molecule?
A: 0

Q: What about the “Complete Response” value (SK-MES carcinoma; i.v. split dose qd x 1, tumor not palpable at end of study) of the same molecule?
A: 0

Q: And the “Partial Response” value (SK-MES carcinoma; i.v. split dose qd x 1, tumor smaller than on Day 1)?
A: 0

Q: What about the “Mean Score” value (SK-MES carcinoma; tumor score 1 to 10 per mouse, group mean) of the same molecule?
A: 1.3 ± 0.3

Q: What about the MDS (MX-1 carcinoma; MX-1, Taxol 36 mg/kg i.v. qd x 1, one animal, calculated, tumor 2.0 g) of the same molecule?
A: 27.8 days

Q: What about the “antitumor activity / tumor response” value (MX-1 carcinoma; MX-1, i.v. qd x 1, Day 60) of the same molecule?
A: moderate anti-tumor activity

Q: What about the Stable Disease (MX-1 carcinoma; [4]) of the same molecule?
A: One

Q: And the Toxic Deaths (MX-1 carcinoma; [4])?
A: four

Q: What about the “Mean Score” value (MX-1 carcinoma; i.v. qd x 1 at MTD, 6 mice/group, Day 60, doses as in E17) of the same molecule?
A: 1.2 ± 0.8

Q: And the “tolerability” value (MX-1 carcinoma; mouse, in vivo, iv)?
A: not well tolerated

Q: What about the “Stable Disease” value (MX-1 carcinoma; number of 6 mice, tumor did not reach 2.0 g by end of study, i.v. qd x 1 at MTD, Day 60, doses as in E17) of the same molecule?
A: 1

Q: What about the “Complete Response” value (MX-1 carcinoma; number of 6 mice, tumor not palpable at end of study, i.v. qd x 1 at MTD, Day 60, doses as in E17) of the same molecule?
A: 0

Q: And the “Partial Response” value (MX-1 carcinoma; number of 6 mice, tumor smaller than on Day 1, i.v. qd x 1 at MTD, Day 60, doses as in E17)?
A: 0

Q: What about the Survivors (MX-1 carcinoma; number of 6 mice, i.v. qd x 1 at MTD, Day 60, doses as in E17) of the same molecule?
A: 1

Q: What about the “Toxic Deaths” value (MX-1 carcinoma; number of 6 mice, i.v. qd x 1 at MTD, Day 60, mg/kg: Taxol 36 (split dose), 0503 72.6, 0536 49, 0663 159, 0670 123, 0687 159, 0706 108, 0908 159, 0947 76.9, 0951 72.6, 0983 67.4, 0999 49, 1003 49, 1011 108) of the same molecule?
A: 0
